System: U87 cells
Assay: Comparison of peptide variants by crystal violet staining and light microscopy
Details: U87 cells; 7.5, 10, 15, 20 and 25 µg/ml; 3 hours incubation
Description: The sizes of the resulting in silico peptides varied from 10 to 30 amino acids. In order to facilitate their cellular internalisation, a TAT-HIV sequence was attached to the C-terminal ends. All peptides were […]. The peptide library was produced by Cambridge Peptides (Cambridge, UK). The peptides were then screened with the MTT (3-(4,5-dimethylthiazol-2-yl)-2,5-diphenyltetrazolium bromide) assay on U87 human glioma cells. Cellular morphology after peptide exposure was assessed by crystal violet staining and light microscopy. All experiments were performed in triplicate.
To increase the stability of the peptide, two further sub-formulations of the original formula (L-aa, containing only L-amino acids) were created: D-aa (retro inversed, (ri)), a peptide comprised of a backward sequence of the original in silico formula, yet made up solely of D-amino acids and an analogue peptide to original in silico peptide formula, comprised of D-amino acids. D-amino acids are highly resistant to protease mediated degradation and have a low immunogenic response. The respective peptide variants were tested in the following concentrations: 7.5, 10, 15, 20 and 25 µg/ml and incubated for 3 hours.

Ac-YGRKKRRQRRRGKTLRVAKAIYKRYIE-NH2
cytotoxic effect / potency by crystal violet staining: cytotoxic effect
